Test results published in ChEMBL document CHEMBL4616724, “Topoisomerase Inhibitors Addressing Fluoroquinolone Resistance in Gram-Negative Bacteria” (J Med Chem, 2020).
Converted amounts (≈) assume the structure as drawn.

How the values were obtained:
[1] = Clearance in rat at 5 mg/kg, iv or 10 mg/kg, po measured up to 24 hrs by LC-MS/MS analysis; type: ADME, organism-based; details: in vivo
[2] = Intrinsic clearance in mouse liver microsomes at 1 uM in presence of NADPH and measured up to 30 mins by LC-MS/MS analysis; type: ADME, Microsome; details: read-out: CLH
[3] = Protein binding in Sprague-Dawley rat plasma at 10 uM incubated for 4 hrs under shaking condition by LC-MS/MS analysis; type: ADME, cell-free; details: read-out: PPB (converted)
[4] = Volume of distribution at steady state in mouse at 5 mg/kg, iv or po measured up to 24 hrs by LC-MS/MS analysis; type: ADME, organism-based; details: in vivo, read-out: Vdss
[5] = test system: Citrobacter; experiment: Antibacterial activity against Citrobacter clinical isolates by CLSI-based broth microdilution assay; type: functional
[6] = Efflux ratio of apparent permeability in human Caco2 cells at 10 uM after 2 hrs by LC-MS/MS analysis; type: ADME, cell-based; details: Caco-2
[7] = Dose normalized AUC in rat at 10 mg/kg, po measured up to 24 hrs by LC-MS/MS analysis; type: ADME, organism-based; details: in vivo
[8] = test system: Klebsiella pneumoniae; experiment: Antibacterial activity against wild type Klebsiella pneumoniae ATCC 43816 by CLSI-based broth microdilution assay; type: functional
[9] = Dose normalized AUC in mouse at 5 mg/kg, po measured up to 24 hrs by LC-MS/MS analysis; type: ADME, organism-based; details: in vivo
[10] = Oral bioavailability in rat at 10 mg/kg measured up to 24 hrs by LC-MS/MS analysis; type: ADME, organism-based; details: in vivo
[11] = Dose normalized Cmax in rat at 10 mg/kg, po measured up to 24 hrs by LC-MS/MS analysis; type: ADME, organism-based; details: in vivo
[12] = test system: Escherichia coli; experiment: Antibacterial activity against Escherichia coli BW25113/JW0451-2 harboring AcrB deletion mutant by CLSI-based broth microdilution assay; type: functional
[13] = Terminal half life in mouse at 5 mg/kg, iv measured up to 24 hrs by LC-MS/MS analysis; type: ADME, organism-based; details: in vivo, read-out: beta t1/2 (converted)
[14] = Solubility of the compound in pH 7 PBS incubated for 24 hrs under gently shaking condition by UPLC/UV/CLND/MS analysis; type: physicochemical; details: PBS, pH 7
[15] = test system: Pseudomonas aeruginosa; experiment: Antibacterial activity against Pseudomonas aeruginosa clinical isolates by CLSI-based broth microdilution assay; type: functional
[16] = Clearance in mouse at 5 mg/kg, iv or po measured up to 24 hrs by LC-MS/MS analysis; type: ADME, organism-based; details: in vivo
[17] = test system: Escherichia coli; experiment: Antibacterial activity against Escherichia coli ATCC 25922 infected in mouse model of neutropenic thigh infection compound administered subcutaneously 2 hrs post infection and measured after 24 hrs by serial dilution method; type: functional
[18] = test system: Escherichia coli; experiment: Ratio of MIC for antibacterial activity against wild type Escherichia coli ATCC 25922 at pH 5.8 to MIC for antibacterial activity against wild type Escherichia coli ATCC 25922 at pH 7.4; type: functional
[19] = test system: Pseudomonas aeruginosa; experiment: Antibacterial activity against Pseudomonas aeruginosa NB52023 harboring gyrA T83I mutant/ParC S87L mutant by CLSI-based broth microdilution assay; type: functional
[20] = Dose normalized Cmax in mouse at 5 mg/kg, po measured up to 24 hrs by LC-MS/MS analysis; type: ADME, organism-based; details: in vivo
[21] = test system: MOLT-4; experiment: Cytotoxicity against human MOLT4 cells assessed as reduction in cell viability after 72 hrs by Cell-titer Glo assay; type: cell-based; details: MOLT-4, 72 h
[22] = test system: Serratia marcescens; experiment: Antibacterial activity against Serratia marcescens clinical isolates by CLSI-based broth microdilution assay; type: functional
[23] = n-Octanol-PBS buffer partition coefficient, log D of the compound at pH 7.4 after overnight incubation by LC/UV/qTOF analysis; type: physicochemical
[24] = target: Voltage-gated inwardly rectifying potassium channel KCNH2 (Homo sapiens, UniProt Q12809); experiment: Inhibition of human ERG expressed in CHOK1 cells measured for 10 mins by QPatch automated patch-clamp assay; type: cell-based, CHO-K1
Voltage-gated inwardly rectifying potassium channel KCNH2, sequence (Q12809 whole entry): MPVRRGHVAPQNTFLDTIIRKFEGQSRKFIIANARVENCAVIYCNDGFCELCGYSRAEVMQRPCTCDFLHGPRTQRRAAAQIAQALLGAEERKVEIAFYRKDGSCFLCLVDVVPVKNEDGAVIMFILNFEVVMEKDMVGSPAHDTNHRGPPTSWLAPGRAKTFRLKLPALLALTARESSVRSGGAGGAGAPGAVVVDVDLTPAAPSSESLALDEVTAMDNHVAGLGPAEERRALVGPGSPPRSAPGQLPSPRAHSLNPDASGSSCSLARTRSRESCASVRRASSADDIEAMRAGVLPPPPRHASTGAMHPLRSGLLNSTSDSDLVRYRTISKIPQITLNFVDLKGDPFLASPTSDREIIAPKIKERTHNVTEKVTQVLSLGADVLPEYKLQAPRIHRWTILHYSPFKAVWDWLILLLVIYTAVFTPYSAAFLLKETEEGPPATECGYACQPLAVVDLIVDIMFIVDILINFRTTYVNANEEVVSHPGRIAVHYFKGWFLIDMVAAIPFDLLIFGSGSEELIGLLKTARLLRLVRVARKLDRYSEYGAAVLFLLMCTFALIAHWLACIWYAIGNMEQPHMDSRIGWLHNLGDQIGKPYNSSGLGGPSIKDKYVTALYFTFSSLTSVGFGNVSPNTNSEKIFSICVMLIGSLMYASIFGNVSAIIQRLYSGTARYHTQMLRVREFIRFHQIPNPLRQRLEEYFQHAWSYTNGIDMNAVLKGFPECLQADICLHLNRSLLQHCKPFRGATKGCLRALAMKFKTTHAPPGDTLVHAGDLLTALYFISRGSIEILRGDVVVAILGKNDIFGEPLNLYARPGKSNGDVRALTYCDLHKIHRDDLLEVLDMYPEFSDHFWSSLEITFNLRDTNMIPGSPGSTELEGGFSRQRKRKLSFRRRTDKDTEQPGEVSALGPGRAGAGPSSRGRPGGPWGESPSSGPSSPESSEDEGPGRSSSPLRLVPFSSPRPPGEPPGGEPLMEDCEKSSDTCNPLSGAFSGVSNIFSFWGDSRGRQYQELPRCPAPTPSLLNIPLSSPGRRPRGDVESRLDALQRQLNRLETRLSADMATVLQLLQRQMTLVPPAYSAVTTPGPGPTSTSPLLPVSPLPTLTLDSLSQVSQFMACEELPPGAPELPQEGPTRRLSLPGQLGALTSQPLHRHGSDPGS

[25] = test system: HepG2; experiment: Cytotoxicity against human HepG2 cells assessed as reduction in cell viability after 72 hrs by Cell-titer Glo assay; type: cell-based; details: HepG2, 72 h
[26] = test system: Escherichia coli; experiment: Bacteriostatic activity against Escherichia coli ATCC 25922 infected in mouse model of neutropenic thigh infection assessed as static dose compound administered subcutaneously 2 hrs post infection and measured after 24 hrs by serial dilution method; type: functional
[27] = Photoirradiation factor, ratio of IC50 for BALB/c mouse 3T3 cells under dark condition to IC50 for BALB/c mouse 3T3 cells under 5 J/cm2 sunlight irradiation by neutral red uptake assay; type: ADME, cell-based, NIH3T3; details: BALB/c 3T3 cells, read-out: Ratio IC50
[28] = test system: Proteus mirabilis; experiment: Antibacterial activity against Proteus mirabilis clinical isolates by CLSI-based broth microdilution assay; type: functional
[29] = test system: Klebsiella oxytoca; experiment: Antibacterial activity against Klebsiella oxytoca clinical isolates by CLSI-based broth microdilution assay; type: functional
[30] = Terminal half life in rat at 5 mg/kg, iv measured up to 24 hrs by LC-MS/MS analysis; type: ADME, organism-based; details: in vivo, read-out: beta t1/2 (converted)
[31] = test system: Morganella morganii; experiment: Antibacterial activity against Morganella morganii clinical isolates by CLSI-based broth microdilution assay; type: functional
[32] = Inhibition of recombinant full-length C-terminal His6-tagged Escherichia coli DNA topoisomerase 4 subunit ParC/ParE using kinetoplast DNA as substrate preincubated for 30 mins followed by substrate addition and measured after 1 hr in presence of ATP by size exclusion chromatography
[33] = Protein binding in pooled human plasma at 10 uM incubated for 4 hrs under shaking condition by LC-MS/MS analysis; type: ADME, cell-free; details: read-out: PPB (converted)
[34] = test system: Escherichia coli; experiment: Antibacterial activity against wild type Escherichia coli ATCC 25922 at pH 5.8 by CLSI-based broth microdilution assay; type: functional
[35] = test system: Escherichia coli; experiment: Antibacterial activity against wild type Escherichia coli ATCC 25922 at pH 7.4 by CLSI-based broth microdilution assay; type: functional
[36] = test system: Escherichia coli; experiment: Antibacterial activity against Escherichia coli clinical isolates by CLSI-based broth microdilution assay; type: functional
[37] = test system: Klebsiella pneumoniae; experiment: Antibacterial activity against Klebsiella pneumoniae clinical isolates by CLSI-based broth microdilution assay; type: functional
[38] = Dissociation constant, pKa of the compound by UV metric method; type: physicochemical
[39] = Protein binding in CD1 mouse plasma at 10 uM incubated for 4 hrs under shaking condition by LC-MS/MS analysis; type: ADME, cell-free; details: read-out: PPB (converted)
[40] = test system: Pseudomonas aeruginosa; experiment: Antibacterial activity against Pseudomonas aeruginosa K1542/K767 harboring MexB/MexXY deletion mutant by CLSI-based broth microdilution assay; type: functional

SMILES: Cc1c(N2CC3CC3(N)C2)c(F)cc2c(CN)c(F)c(=O)n(C3CC3)c12 (stereo unspecified)
- clearance [1]: 71 mL/min/kg
- microsomal CLint at 1 µM [2]: 40 µL/min/mg
- fraction unbound at 4 h, 10 µM [3]: 0.42
- Vd [4]: 5.1 L/kg
- MIC [5]: 0.06 to 32 µg/mL (≈ 0.166 to 88.8 µM)
- MIC50 [5]: 1 µg/mL (≈ 2.77 µM)
- MIC90 [5]: 8 µg/mL (≈ 22.2 µM)
- efflux ratio at 2 h, 10 µM [6]: 1.8
- AUC/dose [7]: 0.1 µM·h/mg/kg
- MIC [8]: 0.125 µg/mL (≈ 0.347 µM)
- AUC/dose [9]: 0.31 µM·h/mg/kg
- bioavailability [10]: 15%
- Cmax/dose [11]: 0.01 µM/mg/kg
- MIC [12]: ≤ 0.03 µg/mL
- half-life [13]: 1.7 h
- solubility at 24 h [14]: 1280 µg/mL (≈ 3540 µM)
- MIC [15]: 1 to 32 µg/mL (≈ 2.77 to 88.8 µM)
- MIC50 [15]: 8 µg/mL (≈ 22.2 µM)
- MIC90 [15]: 32 µg/mL (≈ 88.8 µM)
- clearance [16]: 50 mL/min/kg
- MIC [17]: 0.06 µg/mL (≈ 0.166 µM)
- Ratio [18]: 512
- MIC [19]: 0.5 µg/mL (≈ 1.39 µM)
- Cmax/dose [20]: 0.1 µM/mg/kg
- EC50 [21]: 29 µM
- MIC [22]: 0.06 to 32 µg/mL (≈ 0.166 to 88.8 µM)
- MIC50 [22]: 1 µg/mL (≈ 2.77 µM)
- MIC90 [22]: 8 µg/mL (≈ 22.2 µM)
- logD [23]: 1.1
- IC50 [24]: 114 µM
- EC50 [25]: 82 µM
- Activity [26]: 45.5 mg/kg/day
- selectivity ratio [27]: 621
- MIC [28]: 0.06 to 32 µg/mL (≈ 0.166 to 88.8 µM)
- MIC50 [28]: 1 µg/mL (≈ 2.77 µM)
- MIC90 [28]: 8 µg/mL (≈ 22.2 µM)
- MIC [29]: 0.06 to 32 µg/mL (≈ 0.166 to 88.8 µM)
- MIC50 [29]: 1 µg/mL (≈ 2.77 µM)
- MIC90 [29]: 8 µg/mL (≈ 22.2 µM)
- half-life [30]: 8.2 h
- MIC [31]: 0.06 to 32 µg/mL (≈ 0.166 to 88.8 µM)
- MIC50 [31]: 1 µg/mL (≈ 2.77 µM)
- MIC90 [31]: 8 µg/mL (≈ 22.2 µM)
- IC50 [32]: 0.81 µM
- fraction unbound at 4 h, 10 µM [33]: 0.65
- MIC [34]: 32 µg/mL (≈ 88.8 µM)
- MIC [35]: 0.06 µg/mL (≈ 0.166 µM)
- MIC [36]: 0.06 to 8 µg/mL (≈ 0.166 to 22.2 µM)
- MIC50 [36]: 1 µg/mL (≈ 2.77 µM)
- MIC90 [36]: 2 µg/mL (≈ 5.55 µM)
- MIC [37]: 0.25 to 32 µg/mL (≈ 0.694 to 88.8 µM)
- MIC50 [37]: 4 µg/mL (≈ 11.1 µM)
- MIC90 [37]: 16 µg/mL (≈ 44.4 µM)
- pKa [38]: 7.6 to 8
- fraction unbound at 4 h, 10 µM [39]: 0.68
- MIC [40]: 0.25 µg/mL (≈ 0.694 µM)
